Assays:
[1] = tested on: human fibroblasts transfected with reprogramming factor OSKM; assay: Mitochondrial membrane potential during reprogramming (JC-1, flow cytometry); format: cell-based; settings: 1 mM
Description: At different time points of reprogramming, the cells of a control group and a nicotinamide-treated group (Nam) were dissociated with single cells by trypsin, and then stained with JC-1 (5,5′,6,6′-tetraachloro-1,1′,3,3′-tetraethylbenzimidazolocarbocyanine iodide) solution at 37° C. for 15 minutes. After washing, the degree of fluorescence staining was measured by flow cytometry, relative mitochondrial membrane potential was quantified by the red/green ratio.

[2] = tested on: human foreskin fibroblasts (hFFs); assay: Reprogramming efficiency of human fibroblasts into induced pluripotent stem cells (AP-positive colonies); format: cell-based; settings: for efficiency of reprogramming by timing of treatment: 1 mM
Description: Reprogramming efficiency was determined by measuring the number of colonies showing a positive response in the pluripotency-specific marker alkaline phosphatase (AP) staining and having hESC-like morphology. For production of iPSC, human foreskin fibroblasts (hFFs) were seeded on gelatin-coated 6-well plates at a concentration of 1×10^5 cells per well at 6 hours before transfection and were transfected with virus in the presence of polybrene (6 μg/ml). At 5 days after the transfection, the hFFs were collected by trypsin treatment and reseeded on Matrigel-coated 6-well plates at a concentration of 5-6×10^4 cells per well in order to perform experiments in feeder-free conditions. The medium was replaced with MEF-CM medium containing 10 ng/ml of bFGF. The medium was replaced at 2-day intervals. At 20 days after the transfection, hESC-like colonies were collected and transferred to 12-well plates having MEFs as feeder cells, and then the colonies were continuously cultured using the hESC culture method described in Example 1. In order to measure the efficiency of reprogramming into human induced pluripotent stem cells, the number of colonies stained with the embryonic stem cell marker ALP on the Matrigel-coated 6-well plate was counted, and the efficiency of reprogramming was calculated. Each experiment was performed in triplicate. AP staining was performed using a commercial AP kit (Sigma) according to the manufacturer's instruction. Images of AP-positive cells were recorded with HP Scanjet G4010. Also, bight field images were obtained with an Olympus microscope (IX51, Olympus, Japan). In order to examine the change in reprogramming efficiency of human fibroblasts caused by nicotinamide, retrovirus expressing the reprogramming factors Oct4, Sox2, Klf4 and c-Myc was transfected at an MOI of 1. Reprogramming efficiencies caused by the addition of nicotinamide and other NAD precursors were examined.

[3] = tested on: human pluripotent stem cells; assay: Long-term subculture in UM with nicotinamide (TRA-1-60 staining, karyotyping); format: cell-based
embryonic stem cells = assay: Embryonic stem cells treated with NAD+ synthesis inhibitor FK866 and NAD precursors (NAD level, AP activity, apoptosis); format: cell-based, human; settings: co-treatment with FK866; also in mTeSR1-CDM
Description: Embryonic stem cells were treated with nicotinamide and related compounds, and after 6 days, protein was isolated from the cells. NAD cycling enzyme was added to and reacted with 20 μg of the protein per each group at room temperature for 5 minutes, and then a NADH developer was added and reacted therewith for 2-3 hours. The absorbance at 450 nm was measured using a microplate reader, and the amount of the […] was quantified.
AP staining was performed using a commercial AP kit (Sigma) according to the manufacturer's instruction. Images of AP-positive cells were recorded with HP Scanjet G4010. Also, bight field images were obtained with an Olympus microscope (IX51, Olympus, Japan).
In order to examine the effect of nicotinamide on a reduction in the apoptosis of human pluripotent stem cells, dual apoptosis assay (Biotium, Hayward, Calif.) was performed. Embryonic stem cells or cells reprogrammed were stained with NucView™488 Caspase-3 Substrate (green)/Annextin V (red) at room temperature for 30 minutes, followed by washing with PBS. At least 4 sections of each sample were imaged with an Olympus fluorescence microscope (IX51, Olympus), and the number of cells stained with green (Caspase-3) was counted to quantify the degree of apoptosis.

[4] = tested on: human fibroblasts and human fibroblasts transfected with reprogramming factors; assay: Cell growth and proliferation during reprogramming (viable cell count, BrdU, live-cell imaging); format: cell-based
Description: Human fibroblasts were seeded in a 6-well culture dish at a density of about 1×10^5 cells per well. The seeded cells were cultured for 26 days under the indicated culture conditions. To count the cell number, the cells were washed with PBS and treated with trypsin. The cell suspension was mixed with 0.4% (wt/vol) trypan blue solution, and the number of viable cells was counted on day 19 and day 26 using a hemocytometer (FIG. 10). Each experiment was performed in triplicate. Specifically, for BrdU incorporation, cells were incubated in the presence of 30 μM BrdU at 37° C. for 1 hour. After washing with PBS, the cells were fixed with 4% paraformaldehyde for 15 minutes and reacted in 1N HCl at room temperature for 15 minutes. The sample was washed and reacted with 0.1 M sodium tetraborate for 15 minutes. After washing, the cells were reacted with anti-BrdU antibody in 3% BSA-containing PBS for 1 hour, and then reacted with FITC-conjugated secondary antibody for 30 minutes. […] On day 12 of induction of reprogramming, virus expressing the cell-cycle regulators Geminin-GFP (green) and Cdt1-RFP (red) was introduced into the cells for 2 hours while slowly shaking the cells, and then an accelerator was added to the cells, followed by culture for 1 hour. The medium was replaced with fresh medium, and the cells were further cultured overnight and imaged with a fluorescence microscope. The images were obtained for at least 4 sections per sample, and the number of resting-stage cells (red) and dividing cells (green) was counted. The ratio of dividing cells was quantified by the green/red ratio.

karyotype after long-term subculture ([3]; nicotinamide-containing medium): normal karyotypes
Structure (SMILES): NC(=O)c1cccnc1 [nicotinamide]
membrane potential of mitochondria in reprogramming conditions [1]: the membrane potential was maintained
increase in reprogramming efficiency (AP-positive colonies) ([2]; 0.1 mM nicotinamide, compared to untreated group): 13 times
increase in reprogramming efficiency (AP-positive colonies) ([2]; 1 mM nicotinamide, compared to untreated group): 28 times
increase in reprogramming efficiency (AP-positive colonies) ([2]; 10 mM nicotinamide, compared to untreated group): 16 times
increase in reprogramming efficiency (AP-positive colonies) ([2]; 20 mM nicotinamide, compared to untreated group): 2 times
increase in reprogramming efficiency (AP-positive colonies) ([2]; compared to the addition of other NAD precursors, OSKM retrovirus MOI 1): about 17 times
efficiency of reprogramming by timing of treatment ([2]; continuous treatment throughout the process of inducing reprogramming): highest increase
reprogramming efficiency, same cell number reseeded ([2]; nicotinamide for 5 days after infection, not added after reseeding, vs untreated control): increase in reprogramming efficiency
reprogramming efficiency, same cell number reseeded ([2]; nicotinamide only after reseeding (21 days), not in initial stage, vs untreated): increase in reprogramming efficiency
efficiency of reprogramming by timing of treatment ([2]; treatment in initial stage immediately after viral infection): most effectively increased
passages subcultured in an undifferentiated state ([3]; UM with 0.1 mM nicotinamide, TRA-1-60 staining): ≥ 10 passages
recovery from damage caused by FK866 (embryonic stem cells): recovered
ratio of proliferating cells (live cell imaging) ([4]; 1 mM, day 12 of induction of reprogramming): increased
number of healthy viable cells ([4]; 0.1, 1 and 10 mM, days 19 and 26, concentration-dependent): increased
number of actually dividing cells incorporated with BrdU ([4]; 0.1-1 mM, day 19 of induction of reprogramming): significantly increased
optimal nicotinamide concentration for promoting cell growth ([4]; culture process for inducing reprogramming): 1 mM
